What was measured:
bulrush [1] = experiment: Test Example 1: herbicidal efficacy on rice paddy weeds pre-emergence; assay type: in vivo, Scirpus juncoides; details: 21 days
false pimpernel [2] = experiment: as above; assay type: in vivo, Lindernia pyxidaria; details: 21 days
barnyard glass = experiment: Test Example 2: herbicidal efficacy on rice paddy weeds post-emergence; assay type: in vivo, Echinochloa crus-galli; details: post-emergence, one leaf stage, 21 days after treatment
How it was run: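 Plastic pots of 75 cm^2 were filled with clay loam soil and sown with barnyard glass and bulrush seeds, then topped with 75 cm^3 soil containing false pimpernel seeds. The pots were flooded to 5 cm water depth and held in a hot house. Twenty-one days after treatment, herbicidal efficacy was graded against an untreated control.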

bulrush [3] = experiment: as above; assay type: in vivo, Scirpus juncoides; details: post-emergence, one leaf stage, 21 days after treatment
false pimpernel [4] = experiment: as above; assay type: in vivo, Lindernia pyxidaria; details: post-emergence, one leaf stage, 21 days after treatment
[5] = system: paddy rice plant (cultivar: Nihonbare); experiment: Test Example 3: phytotoxicity test for transplanted paddy rice plant; assay type: in vivo; details: transplanted rice, 21 days after treatment
How it was run: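 Clay loam soil was placed in a 75 cm^2 plastic pot and flooded to a water depth of 5 cm. Two Nihonbare paddy rice plants at the two-leaf stage were transplanted 1 cm deep and grown in a hot house. After treatment, pots stayed in the hot house for 21 days, and phytotoxicity was then graded against an untreated control.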

bulrush [6] = experiment: Test Example 4: low dosage test for rice paddy weeds; assay type: in vivo, Scirpus juncoides; details: 300 g/ha as an active ingredient; plants treated at the one leaf stage; 21 days after treatment; vs untreated control
How it was run: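 Bulrush sown in clay loam pots, flooded to 5 cm water in a hot house, treated at the one-leaf stage with formulated compound at 300 g/ha. Efficacy scored 0–4 against untreated control 21 days after treatment (4 = 90–100%, 0 = 0% inhibition).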

[7] = system: transplanted paddy rice plant and Bulrush; experiment: Test Example 5: selectivity between transplanted paddy rice plant and weeds; assay type: in vivo; details: (highest dosage with no phytotoxicity to paddy rice)/(lowest dosage with effective level 4 on Bulrush); rice 3000-100 g/ha, Bulrush 300-10 g/ha; 21 days
How it was run: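 Transplanted paddy rice was treated at 3000, 1000, 300 and 100 g/ha active ingredient for phytotoxicity, and post-emergence bulrush at 300, 100, 30 and 10 g/ha. Plants were kept in a hothouse for 21 days. Growth inhibition versus untreated control was scored 0–4 (0%, 1–39%, 40–69%, 70–89%, 90–100%).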

[8] = dosage 1000 g/ha, treated 5 days after transplantation

Row | SMILES | Bulrush pre (herbicidal efficacy grade) (bulrush [1]; dosage 1000 g/ha) | False pimpernel pre (herbicidal efficacy grade) (false pimpernel [2]; dosage 1000 g/ha) | Burnyard grass post (herbicidal efficacy grade) (barnyard glass; dosage 1000 g/ha) | Bulrush post (herbicidal efficacy grade) (bulrush [3]; dosage 1000 g/ha) | False pimpernel post (herbicidal efficacy grade) (false pimpernel [4]; dosage 1000 g/ha) | Phytotoxicity to paddy rice [5, 8] | Herbicide effect to Bulrush (bulrush [6]) | Selective Index [7] | Bulrush pre (herbicidal efficacy grade) (bulrush [1]; dosage 300 g/ha) | False pimpernel pre (herbicidal efficacy grade) (false pimpernel [2]; dosage 300 g/ha) | Burnyard grass post (herbicidal efficacy grade) (barnyard glass; dosage 300 g/ha) | Bulrush post (herbicidal efficacy grade) (bulrush [3]; dosage 300 g/ha) | False pimpernel post (herbicidal efficacy grade) (false pimpernel [4]; dosage 300 g/ha) | Phytotoxicity to paddy rice ([5]; dosage 300 g/ha)
1 | CC(C)COC(=O)N(c1ccccc1CN1CC(C2CC2)(C2CC2)OC1=O)S(=O)(=O)C(F)(F)F [1-171] | 4 (90%-100% of herbicidal efficacy or phytotoxicity) | 4 (90%-100% of herbicidal efficacy or phytotoxicity) | 4 (90%-100% of herbicidal efficacy or phytotoxicity) | 4 (90%-100% of herbicidal efficacy or phytotoxicity) | 4 (90%-100% of herbicidal efficacy or phytotoxicity) | 1 (1%-39% of herbicidal efficacy or phytotoxicity) | 4 (90%-100% of herbicidal efficacy or phytotoxicity) | 10 |  |  |  |  |  | 
2 | CCC1(CC)CN(Cc2ccccc2NS(=O)(=O)C(F)(F)F)C(=S)O1 [1-178] | 4 (90%-100% of herbicidal efficacy or phytotoxicity) | 4 (90%-100% of herbicidal efficacy or phytotoxicity) | 4 (90%-100% of herbicidal efficacy or phytotoxicity) | 4 (90%-100% of herbicidal efficacy or phytotoxicity) | 4 (90%-100% of herbicidal efficacy or phytotoxicity) | 1 (1%-39% of herbicidal efficacy or phytotoxicity) | 4 (90%-100% of herbicidal efficacy or phytotoxicity) | 10 |  |  |  |  |  | 
3 | CCC1(CC)CN(Cc2ccccc2N(C(=O)OCC(C)C)S(=O)(=O)C(F)(F)F)C(=S)O1 [1-179] | 4 (90%-100% of herbicidal efficacy or phytotoxicity) | 4 (90%-100% of herbicidal efficacy or phytotoxicity) | 4 (90%-100% of herbicidal efficacy or phytotoxicity) | 4 (90%-100% of herbicidal efficacy or phytotoxicity) | 4 (90%-100% of herbicidal efficacy or phytotoxicity) | 0 (0% of herbicidal efficacy or phytotoxicity) | 4 (90%-100% of herbicidal efficacy or phytotoxicity) | 33.3 |  |  |  |  |  | 
4 | CCC1(C)CN(Cc2ccccc2N(C(=O)OCC(C)C)S(=O)(=O)C(F)(F)F)C(=S)O1 (centres unmarked) [1-181] | 4 (90%-100% of herbicidal efficacy or phytotoxicity) | 4 (90%-100% of herbicidal efficacy or phytotoxicity) | 4 (90%-100% of herbicidal efficacy or phytotoxicity) | 4 (90%-100% of herbicidal efficacy or phytotoxicity) | 4 (90%-100% of herbicidal efficacy or phytotoxicity) | 1 (1%-39% of herbicidal efficacy or phytotoxicity) | 4 (90%-100% of herbicidal efficacy or phytotoxicity) | 10 |  |  |  |  |  | 
5 | CCC1(CC)CN(Cc2ccccc2N(C(=O)OC)S(=O)(=O)C(F)(F)F)C(=S)O1 [1-183] | 4 (90%-100% of herbicidal efficacy or phytotoxicity) | 4 (90%-100% of herbicidal efficacy or phytotoxicity) | 4 (90%-100% of herbicidal efficacy or phytotoxicity) | 4 (90%-100% of herbicidal efficacy or phytotoxicity) | 4 (90%-100% of herbicidal efficacy or phytotoxicity) | 1 (1%-39% of herbicidal efficacy or phytotoxicity) | 4 (90%-100% of herbicidal efficacy or phytotoxicity) | 10 |  |  |  |  |  | 
6 | COC(=O)N(c1ccccc1CN1CC(C)(C)SC1=O)S(=O)(=O)C(F)(F)F [1-186] | 4 (90%-100% of herbicidal efficacy or phytotoxicity) | 4 (90%-100% of herbicidal efficacy or phytotoxicity) | 4 (90%-100% of herbicidal efficacy or phytotoxicity) | 4 (90%-100% of herbicidal efficacy or phytotoxicity) | 4 (90%-100% of herbicidal efficacy or phytotoxicity) | 1 (1%-39% of herbicidal efficacy or phytotoxicity) | 4 (90%-100% of herbicidal efficacy or phytotoxicity) | 10 |  |  |  |  |  | 
7 | COC(=O)N(c1ccccc1CN1C(=O)OC(C)(C)C1=O)S(=O)(=O)C(F)(F)F [1-188] | 4 (90%-100% of herbicidal efficacy or phytotoxicity) | 4 (90%-100% of herbicidal efficacy or phytotoxicity) | 4 (90%-100% of herbicidal efficacy or phytotoxicity) | 4 (90%-100% of herbicidal efficacy or phytotoxicity) | 4 (90%-100% of herbicidal efficacy or phytotoxicity) | 1 (1%-39% of herbicidal efficacy or phytotoxicity) | 4 (90%-100% of herbicidal efficacy or phytotoxicity) | ≧10 |  |  |  |  |  | 
8 | CCC1OC(=O)N(Cc2ccccc2NS(=O)(=O)C(F)(F)F)C1=O (centres unmarked) [1-192] |  |  |  |  |  |  | 4 (90%-100% of herbicidal efficacy or phytotoxicity) | 10 | 4 (90%-100% of herbicidal efficacy or phytotoxicity) | 4 (90%-100% of herbicidal efficacy or phytotoxicity) | 0 (0% of herbicidal efficacy or phytotoxicity) | 4 (90%-100% of herbicidal efficacy or phytotoxicity) | 0 (0% of herbicidal efficacy or phytotoxicity) | 1 (1%-39% of herbicidal efficacy or phytotoxicity)
9 | CCCCOC(=O)N(c1ccccc1CN1C(=O)OC(C)(C)C1OC)S(=O)(=O)C(F)(F)F (centres unmarked) [1-196] | 4 (90%-100% of herbicidal efficacy or phytotoxicity) | 4 (90%-100% of herbicidal efficacy or phytotoxicity) | 4 (90%-100% of herbicidal efficacy or phytotoxicity) | 4 (90%-100% of herbicidal efficacy or phytotoxicity) | 4 (90%-100% of herbicidal efficacy or phytotoxicity) | 1 (1%-39% of herbicidal efficacy or phytotoxicity) | 4 (90%-100% of herbicidal efficacy or phytotoxicity) | 10 |  |  |  |  |  | 
10 | CC(C)COC(=O)N(c1ccccc1CN1CCOC1=O)S(=O)(=O)C(F)(F)F [Compound No. 1-2] | 4 (90%-100% of herbicidal efficacy or phytotoxicity) | 4 (90%-100% of herbicidal efficacy or phytotoxicity) | 4 (90%-100% of herbicidal efficacy or phytotoxicity) | 4 (90%-100% of herbicidal efficacy or phytotoxicity) | 4 (90%-100% of herbicidal efficacy or phytotoxicity) | 1 (1%-39% of herbicidal efficacy or phytotoxicity) | 3 (70%-89% of herbicidal efficacy or phytotoxicity) | 3 |  |  |  |  |  | 
